In PubChem BioAssay (NCI):
Several values for one entry are separate records, joined by “and”; a condition that tells them apart may be missing. Equal values may be shown once.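 Test compounds were applied to cells in 96-well plates for 48 hours at 5 doses. GI50: concentration for 50% inhibition of growth. TGI denotes the concentration required for complete inhibition of growth.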

Experiments:
Assay in all cases: growth of human tumour cells (NCI), 48 h
SK-MEL-5 melanoma = tested on: SK-MEL-5 melanoma
UACC-257 melanoma = tested on: UACC-257 melanoma
SF-295 CNS = tested on: SF-295 CNS
SF-539 CNS = tested on: SF-539 CNS
RXF 393 renal = tested on: RXF 393 renal
IGROV1 ovarian = tested on: IGROV1 ovarian
SW-620 colon = tested on: SW-620 colon
HOP-62 NSCLC = tested on: HOP-62 NSCLC
MCF7 breast = tested on: MCF7 breast
DU-145 prostate = tested on: DU-145 prostate

SMILES	TGI (SK-MEL-5 melanoma)	TGI (UACC-257 melanoma)	TGI (SF-295 CNS)	TGI (SF-539 CNS)	TGI (RXF 393 renal)	TGI (IGROV1 ovarian)	TGI (SW-620 colon)	TGI (HOP-62 NSCLC)	GI50 (SK-MEL-5 melanoma)	GI50 (UACC-257 melanoma)	GI50 (SF-295 CNS)	GI50 (SF-539 CNS)	GI50 (RXF 393 renal)	GI50 (MCF7 breast)	GI50 (IGROV1 ovarian)	GI50 (SW-620 colon)	GI50 (HOP-62 NSCLC)	TGI (MCF7 breast)	GI50 (DU-145 prostate)	TGI (DU-145 prostate)
NC(=O)C(=O)N/N=C1/c2ccccc2CC1C1(O)C(=O)Nc2c(Cl)cc(Cl)cc21 (centres undefined)	> 100 µM	> 100 µM	> 100 µM	> 100 µM	> 100 µM	> 100 µM	> 100 µM	> 100 µM	–	–	–	–	–	–	–	–	–	–	–	–
C=C1C(O)C2(O)OCC34C(CC5C(C)=CC(=O)C(O)C5(C)C23)OC(=O)C(OC(=O)C/C=C(\C)CCCCC)C14 (centres undefined)	< 0.001 µM	–	0.00567 µM and 0.0245 µM and 0.0174 µM	–	0.00351 µM and 0.0245 µM	–	0.0158 µM and 0.119 µM and 0.026 µM	–	< 0.001 µM	< 0.001 µM	0.0013 µM	< 0.001 µM	< 0.001 µM	< 0.001 µM	< 0.001 µM	< 0.001 µM	< 0.001 µM	–	–	–
COc1cc(/C=C/C(=O)O)ccc1C(=O)O/C=C/c1ccccc1	> 100 µM	> 100 µM	> 100 µM	> 100 µM	> 100 µM	> 100 µM	> 100 µM	> 100 µM	–	–	–	–	–	–	–	–	–	> 100 µM	–	–
CCCCN1CCN(c2ccc3nc(-c4ccc5nc(-c6ccc(C(F)(F)F)cc6)[nH]c5c4)[nH]c3c2)CC1	3.09 µM	3.41 µM	2.95 µM	3.02 µM	2.49 µM	–	0.841 µM	2.98 µM	1.6 µM	1.78 µM	1.48 µM	1.59 µM	1.13 µM	–	–	0.297 µM	1.54 µM	–	0.915 µM	2.36 µM
COCOc1ccc(OC)cc1	> 100 µM	> 100 µM	> 100 µM	> 100 µM	> 100 µM	> 100 µM	> 100 µM	> 100 µM	–	–	–	–	–	–	–	–	–	> 100 µM	–	–
CCC[C@H]1C(=O)N=C(N)N1C(=O)OCc1ccccc1	> 100 µM	> 100 µM	> 100 µM	> 100 µM	> 100 µM	> 100 µM	> 100 µM	> 100 µM	–	–	–	–	–	–	–	–	–	> 100 µM	–	–
C/C(=C\c1ccccc1)C(=O)CCN1CCOCC1	> 60.1 µM	30.6 µM	> 100 µM	34.6 µM	35.2 µM	> 61.9 µM	30.9 µM	> 100 µM	–	–	–	–	–	–	–	–	–	20.9 µM	–	–
Nc1nn2c(C(Br)Br)cc(C(Br)Br)nc2c1[N+](=O)[O-]	3.06 µM	3.11 µM	4.46 µM	1.16 µM	4.35 µM	3.38 µM	0.77 µM	–	–	–	–	–	–	–	–	–	–	–	–	3.46 µM
COc1cc(C2c3cc4c(cc3OC(NN=C(C)C)C2C)OCO4)cc(OC)c1O (centres undefined)	38.1 µM	> 100 µM	> 100 µM	56.1 µM	> 100 µM	> 100 µM	> 100 µM	–	–	–	–	–	–	–	–	–	–	> 100 µM	–	> 100 µM
O=C(NC(Cc1c[nH]c2ccccc12)C(=O)O)/C(=C/c1ccccc1O)NC(=O)c1ccccc1 (centres undefined)	> 100 µM	> 100 µM	37 µM	40.6 µM	> 100 µM	> 100 µM	> 100 µM	–	–	–	–	–	–	–	–	–	–	24.9 µM	–	> 100 µM
